Data as given in ChEMBL document CHEMBL6182867, “Discovery of ultra short β-peptoids with selective activity against drug-resistant Mycobacterium tuberculosis” (Eur J Med Chem, 2025).
≈ marks a conversion by molar mass, not a printed value. Calls of active or inactive are those of the source. No cut-off for these calls is given here.

What was measured:
[1] = Cytotoxicity against African green monkey Vero cells measured after 3 days by resazurin dye based fluorescence assay; format: toxicity, cell-based; settings: African green monkey (Chlorocebus sabaeus)
Mitochondrial membrane [2] = test: Induction of […] membrane potential loss in Mycobacterium tuberculosis H37Rv at <=MIC measured after 24 hrs by DiOC2 dye based fluorescence assay; format: cell membranes
Mitochondrial membrane [3] = test: Induction of […] membrane potential loss in Mycobacterium tuberculosis H37Rv at <=MIC measured after 15 mins by DiOC2 dye based fluorescence assay; format: cell membranes
[4] = system: Mycobacterium tuberculosis; test: Synergistic antitubercular activity against Mycobacterium tuberculosis H37Rv assessed as isoniazid MIC=>90 at 0.8 ug/ml by microplate alamar blue assay (reference value: 0.12 uM); format: functional; settings: dose 0.8 µg/ml
[5] = system: Mycobacterium tuberculosis; test: Bactericidal activity against Mycobacterium tuberculosis H37Rv measured up to 7 days by luminescence assay; format: functional; settings: time <= 7 day
[6] = system: Mycobacteroides abscessus; test: Antibacterial activity against Mycobacterium abscessus ATCC 19977 incubated for 3 days by microplate alamar blue assay; format: functional; settings: ATCC 19977, 72 h, time 3 day
Mycobacteroides chelonae [7] = test: Antibacterial activity against Mycobacteroides chelonae ATCC 35752 incubated for 3 days by microplate alamar blue assay; format: functional; settings: ATCC 35752, 72 h, time 3 day
Mycobacteroides chelonae [8] = test: Antibacterial activity against Mycobacteroides chelonae ATCC 35752 assessed as growth inhibition at 100 ug/ml incubated for 3 days by microplate alamar blue assay relative to control; format: functional; settings: ATCC 35752, 72 h, time 3 day, read-out: GI
Candida albicans = test: Antifungal activity against Candida albicans by microplate alamar blue assay; format: functional
[9] = system: Mycobacterium tuberculosis; test: Antitubercular activity against Mycobacterium tuberculosis H37Rv ATCC 27294 by microplate alamar blue assay; format: functional
[10] = system: Mycobacterium tuberculosis; test: Synergistic antitubercular activity against Mycobacterium tuberculosis H37Rv assessed as bedaquiline MIC=>90 at 0.8 ug/ml by microplate alamar blue assay (reference value: 0.05 uM); format: functional; settings: dose 0.8 µg/ml
Mycobacterium avium [11] = test: Antibacterial activity against Mycobacterium avium ATCC 15769 assessed as growth inhibition at 100 ug/ml incubated for 6 days by microplate alamar blue assay relative to control; format: functional; settings: ATCC 15769, 144 h, time 6 day, read-out: GI
Mycobacterium kansasii [12] = test: Antibacterial activity against Mycobacterium kansasii ATCC 12478 assessed as growth inhibition at 100 ug/ml incubated for 7 days by microplate alamar blue assay relative to control; format: functional; settings: ATCC 12478, 168 h, time 7 day, read-out: GI
[13] = system: Mycobacterium tuberculosis; test: Antitubercular activity against Mycobacterium tuberculosis KMA 4244 by microplate alamar blue assay; format: functional
[14] = system: Mycobacteroides abscessus; test: Antibacterial activity against Mycobacterium abscessus ATCC 19977 assessed as growth inhibition at 100 ug/ml incubated for 3 days by microplate alamar blue assay relative to control; format: functional; settings: ATCC 19977, 72 h, time 3 day, read-out: GI
[15] = system: Mycobacterium tuberculosis; test: Synergistic antitubercular activity against Mycobacterium tuberculosis H37Rv in presence of rifampin by microplate alamar blue assay (reference value: 3.08 uM); format: functional
Mycobacterium avium [16] = test: Antibacterial activity against Mycobacterium avium ATCC 15769 incubated for 6 days by microplate alamar blue assay; format: functional; settings: ATCC 15769, 144 h, time 6 day
[17] = system: Mycobacterium tuberculosis; test: Antitubercular activity against Mycobacterium tuberculosis KMA 5282 by microplate alamar blue assay; format: functional
Enterococcus faecium = test: Antibacterial activity against Enterococcus faecium by microplate alamar blue assay; format: functional
[18] = system: Mycobacterium tuberculosis; test: Antitubercular activity against Mycobacterium tuberculosis KMA 1354 by microplate alamar blue assay; format: functional
Mycobacterium marinum [19] = test: Antibacterial activity against Mycobacterium marinum ATCC 927 assessed as growth inhibition at 100 ug/ml incubated for 5 days by microplate alamar blue assay relative to control; format: functional; settings: ATCC 927, 120 h, time 5 day, read-out: GI
[20] = system: Mycobacterium tuberculosis; test: Synergistic antitubercular activity against Mycobacterium tuberculosis H37Rv in presence of bedaquiline by microplate alamar blue assay (reference value: 3.08 uM); format: functional
[21] = system: Mycobacterium tuberculosis; test: Synergistic antitubercular activity against Mycobacterium tuberculosis H37Rv assessed as rifampin MIC=>90 at 0.8 ug/ml by microplate alamar blue assay (reference value: 0.06 uM); format: functional; settings: dose 0.8 µg/ml
Klebsiella pneumoniae = test: Antibacterial activity against Klebsiella pneumoniae by microplate alamar blue assay; format: functional
Staphylococcus aureus = test: Antibacterial activity against Staphylococcus aureus by microplate alamar blue assay; format: functional
[22] = system: Mycobacterium tuberculosis; test: Antitubercular activity against Mycobacterium tuberculosis H37Rv assessed as post antibiotic affect up to 100 ug/ml measured daily for up to 14 days by luminescence assay; format: functional, organism-based; settings: dose <= 100.0 µg/ml, time <= 14.0 day
[23] = system: Mycobacterium tuberculosis; test: Antitubercular activity against Mycobacterium tuberculosis KMA 3899 by microplate alamar blue assay; format: functional
Pseudomonas aeruginosa = test: Antibacterial activity against Pseudomonas aeruginosa by microplate alamar blue assay; format: functional
Mycobacterium marinum [24] = test: Antibacterial activity against Mycobacterium marinum ATCC 927 incubated for 5 days by microplate alamar blue assay; format: functional; settings: ATCC 927, 120 h, time 5 day
Mycobacterium kansasii [25] = test: Antibacterial activity against Mycobacterium kansasii ATCC 12478 incubated for 7 days by microplate alamar blue assay; format: functional; settings: ATCC 12478, 168 h, time 7 day
[26] = system: Mycobacterium tuberculosis; test: Synergistic antitubercular activity against Mycobacterium tuberculosis H37Rv in presence of isoniazid by microplate alamar blue assay (reference value: 3.08 uM); format: functional
[27] = system: Mycobacterium tuberculosis; test: Antitubercular activity against Mycobacterium tuberculosis KMA 4439 by microplate alamar blue assay; format: functional
Acinetobacter baumannii = test: Antibacterial activity against Acinetobacter baumannii by microplate alamar blue assay; format: functional
Klebsiella aerogenes = test: Antibacterial activity against Enterobacter aerogenes by microplate alamar blue assay; format: functional
[28] = system: Mycobacterium tuberculosis; test: Antitubercular activity against Mycobacterium tuberculosis H37Rv by microplate alamar blue assay; format: functional
[29] = system: Mycobacterium tuberculosis; test: Synergistic antitubercular activity against Mycobacterium tuberculosis H37Rv assessed as bedaquiline MIC=>90 at 0.4 ug/ml by microplate alamar blue assay (reference value: 0.05 uM); format: functional; settings: dose 0.4 µg/ml
[30] = system: Mycobacterium tuberculosis; test: Synergistic antitubercular activity against Mycobacterium tuberculosis H37Rv in presence of bedaquiline by microplate alamar blue assay (reference value: 2.59 uM); format: functional
[31] = system: Mycobacterium tuberculosis; test: Synergistic antitubercular activity against Mycobacterium tuberculosis H37Rv assessed as rifampin MIC=>90 at 0.4 ug/ml by microplate alamar blue assay (reference value: 0.06 uM); format: functional; settings: dose 0.4 µg/ml
[32] = system: Mycobacterium tuberculosis; test: Synergistic antitubercular activity against Mycobacterium tuberculosis H37Rv in presence of isoniazid by microplate alamar blue assay (reference value: 2.59 uM); format: functional
[33] = system: Mycobacterium tuberculosis; test: Synergistic antitubercular activity against Mycobacterium tuberculosis H37Rv in presence of rifampin by microplate alamar blue assay (reference value: 2.59 uM); format: functional
[34] = system: Mycobacterium tuberculosis; test: Synergistic antitubercular activity against Mycobacterium tuberculosis H37Rv assessed as isoniazid MIC=>90 at 0.4 ug/ml by microplate alamar blue assay (reference value: 0.12 uM); format: functional; settings: dose 0.4 µg/ml

SMILES	IC50 at 3 days [1] [µM]	Activity (Mitochondrial membrane [2])	Activity (Mitochondrial membrane [3])	MBC99 [5] [µg/mL]	MIC90 [6] [µg/mL]	MIC90 (Mycobacteroides chelonae [7]) [µg/mL]	inhibition of growth at 100 µg/mL (Mycobacteroides chelonae [8]) [%]	MIC90 (Candida albicans) [µg/mL]	MIC90 [9] [µg/mL]	inhibition of growth at 100 µg/mL (Mycobacterium avium [11]) [%]	inhibition of growth at 100 µg/mL (Mycobacterium kansasii [12]) [%]	MIC90 [13] [µg/mL]	inhibition of growth at 100 µg/mL [14] [%]	MIC90 (Mycobacterium avium [16]) [µg/mL]	MIC90 (Enterococcus faecium)	MIC90 (Klebsiella pneumoniae)	MIC90 (Staphylococcus aureus)	MIC90 (Pseudomonas aeruginosa)	MIC90 (Acinetobacter baumannii)	MIC90 (Klebsiella aerogenes)	other results
N#CC(C#N)=NNc1cccc(Cl)c1 [CARBONYL CYANIDE M-CHLOROPHENYLHYDRAZONE]	10.8	Active	inactive																		
CC(C)N(C(=O)CCNCCC(c1ccccc1)c1ccccc1)C(C)C	45.9	inactive	inactive	5480 (≈ 15000 µM)	> 100	> 100	74	> 100	3.11 (≈ 8.48 µM)	0	0	6.11 (≈ 16.7 µM)	0	> 100	95.8 µg/mL	> 100 µg/mL	96.5 µg/mL	> 100 µg/mL	> 100 µg/mL	> 100 µg/mL	MIC [4]: 0.12 µM; MIC [10]: 0.03 µM; MIC [15]: 2.01 µg/mL; MIC90 [17]: 8.73 µg/mL (≈ 23.8 µM); MIC90 [18]: 4.58 µg/mL (≈ 12.5 µM); inhibition of growth at 100 µg/mL (Mycobacterium marinum [19]): 90%; MIC [20]: 2.99 µg/mL; MIC [21]: 0.04 µM; Activity [22]: inactive; MIC90 [23]: 4.68 µg/mL (≈ 12.8 µM); MIC90 (Mycobacterium marinum [24]): > 100 µg/mL; MIC90 (Mycobacterium kansasii [25]): > 100 µg/mL; MIC [26]: 3.06 µg/mL; MIC90 [27]: 8.79 µg/mL (≈ 24 µM); MIC90 [28]: 2.97 µg/mL (≈ 8.1 µM)
C[C@H]1c2cccc(O)c2C(=O)C2=C(O)[C@]3(O)C(=O)C(C(N)=O)=C(O)[C@@H](N(C)C)[C@@H]3[C@@H](O)[C@@H]21 [DOXYCYCLINE ANHYDROUS]															< 0.195 µM	0.34 µM	< 0.195 µM	5.49 µM	< 0.195 µM	2.84 µM	
CC(C)N(C(=O)CCNCCCC1CCCC1)C(C)C	69.7	inactive	inactive	3020 (≈ 10700 µM)	> 100	> 100	18	49.6 (≈ 176 µM)	1.48 (≈ 5.24 µM)	0	0	2.92 (≈ 10.3 µM)	0	> 100	49.2 µg/mL	> 100 µg/mL	48.1 µg/mL	> 100 µg/mL	> 100 µg/mL	> 100 µg/mL	MIC [29]: 0.04 µM; MIC [30]: 2.33 µg/mL; MIC90 [17]: 4.37 µg/mL (≈ 15.5 µM); MIC [31]: 0.03 µM; MIC [32]: 2.45 µg/mL; MIC90 [18]: 1.8 µg/mL (≈ 6.37 µM); inhibition of growth at 100 µg/mL (Mycobacterium marinum [19]): 26%; MIC [33]: 1.38 µg/mL; Activity [22]: inactive; MIC90 [23]: 1.54 µg/mL (≈ 5.45 µM); MIC [34]: 0.12 µM; MIC90 (Mycobacterium marinum [24]): > 100 µg/mL; MIC90 (Mycobacterium kansasii [25]): > 100 µg/mL; MIC90 [27]: 3.11 µg/mL (≈ 11 µM); MIC90 [28]: 1.48 µg/mL (≈ 5.24 µM)
